Measurements from the supplement of paper PMC10307832.

Compound: CN1CCN(c2ccc3nc(-c4c(N)c5c(F)cccc5[nH]c4=O)[nH]c3c2)CC1 [Dovitinib]
Assay: relative viability (nuclei count vs DMSO), 5 days (fraction); higher = more cells survive
Outline: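 After an overnight hold at 37 °C, lung cancer cell lines in 1536-well plates were pinned with five library-drug doses (not always all listed), each √10 from the next, on vehicle-anchored plates. The cells stayed 5 days without fresh medium, then a one-step fix, permeabilisation and Hoechst stain preceded 4× imaging and MetaXpress nuclear counts. A plate passed only with control CV under 25% and at least one doubling. Viability is the median, over plates, of treated-well nuclei relative to vehicle-well nuclei.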

Cell Line | relative viability (0.02 µM) | relative viability (0.06325 µM) | relative viability (0.2 µM) | relative viability (0.6325 µM) | relative viability (2 µM)
NCI-H441 | 1.08 | 1.11 | 1.04 | 1.07 | 1.06
NCI-H1793 | 1.07 | 0.977 | 1.02 | 1.09 | 1.01
NCI-H23 | 1.01 | 1.03 | 1.07 | 1.02 | 0.952
HARA | 1.29 | 0.948 | 1 | 1.25 | 1.01
NCI-H1792 | 0.898 | 0.818 | 0.894 | 1.04 | 0.907
NCI-H1703 | 1.01 | 1.08 | 0.882 | 0.637 | 0.541
NCI-H2342 | 1.12 | 0.992 | 1.1 | 1.04 | 1.01
CAL-12T | 1.07 | 1.02 | 1.02 | 0.99 | 1.1
NCI-H727 | 1.1 | 0.782 | 0.968 | 0.989 | 0.921
NCI-H2085 | 1 | 1.01 | 1.03 | 1.02 | 0.985
NCI-H1395 | 0.99 | 0.849 | 0.959 | 0.827 | 1.15
NCI-H1648 | 0.914 | 0.805 | 1.12 | 0.908 | 0.789
NCI-H460 | 0.982 | 1.02 | 0.993 | 0.985 | 0.964
A549 | 0.964 | 1.04 | 1.06 | 0.991 | 0.966
IA-LM | 0.864 | 1.02 | 0.962 | 0.989 | 0.873
EKVX | 1.01 | 0.983 | 1.05 | 1.04 | 1.01
ChaGo-K-1 | 0.961 | 1.06 | 0.97 | 1.02 | 0.995
NCI-H1755 | 1.04 | 1.02 | 1.01 | 0.998 | 1.02
NCI-H2228 | 0.832 | 1.17 | 1.16 | 0.966 | 0.962
NCI-H2087 | 0.981 | 0.982 | 1.05 | 1.18 | 1.05
LU99A | 0.911 | 0.944 | 0.971 | 0.97 | 1.04
NCI-H1355 | 1.04 | 0.931 | 1.04 | 0.989 | 1.07
NCI-H520 | 1.01 | 1.02 | 0.944 | 0.976 | 0.955
NCI-H661 | 0.988 | 0.993 | 1.04 | 1.03 | 1.06
NCI-H650 | 0.97 | 0.883 | 1 | 0.927 | 1.03
NCI-H647 | 0.957 | 0.991 | 1.04 | 0.991 | 0.949

Cell Line | relative viability (0.02 µM) | relative viability (0.06325 µM) | relative viability (0.2 µM) | relative viability (0.6325 µM) | relative viability (2 µM)
201T | 0.895 | 0.954 | 0.991 | 1.02 | 0.989
NCI-H838 | 0.935 | 1 | 1.01 | 0.95 | 0.966
SW 1573 | 1.05 | 0.992 | 1.01 | 0.947 | 1.07
PC-14 | 1 | 1.01 | 1.03 | 1.03 | 1.04
LK-2 | 0.944 | 0.974 | 0.895 | 0.975 | 0.847
COR-L23 | 0.967 | 1.1 | 0.987 | 1.06 | 1.04
NCI-H1944 | 0.94 | 0.94 | 1.08 | 1.02 | 1.01
HCC-78 | 1.02 | 0.809 | 1.05 | 1.04 | 0.952
NCI-H2405 | 0.96 | 0.969 | 1.06 | 1.03 | 1.16
SK-LU-1 | 0.991 | 1.09 | 1.08 | 1.08 | 1.11
EMC-BAC-2 | 1.06 | 0.952 | 0.994 | 1.01 | 1.02
NCI-H1650 | 0.949 | 0.998 | 0.987 | 0.93 | 1.05
NCI-H596 | 0.965 | 0.957 | 1 | 1.12 | 0.932
LCLC-97TM1 | 1.07 | 0.785 | 1.01 | 1 | 0.979
H3255 | 0.955 | 1.02 | 0.997 | 1.01 | 1.06
LXF-289 | 0.938 | 1.01 | 0.999 | 1.02 | 0.979
UMC-11 | 0.959 | 0.941 | 0.992 | 0.981 | 0.939
LC-2-ad | 0.977 | 0.966 | 0.965 | 0.983 | 0.98
SK-MES-1 | 0.988 | 1.01 | 1.06 | 1.01 | 1.03
A-427 | 0.918 | 0.901 | 1.06 | 1.06 | 1.05
NCI-H322M | 0.885 | 0.926 | 0.918 | 0.977 | 0.97
HCC-366 | 0.989 | 0.978 | 0.993 | 0.973 | 0.982
NCI-H1975 | 0.916 | 0.966 | 1.03 | 0.976 | 0.947
NCI-H1437 | 0.973 | 1.03 | 0.971 | 1.04 | 1.02
NCI-H2009 | 0.881 | 1.01 | 1.02 | 1.03 | 1.12
NCI-H1651 | 0.986 | 0.999 | 1.03 | 1.06 | 0.963

Cell Line | relative viability (0.02 µM) | relative viability (0.06325 µM) | relative viability (0.2 µM) | relative viability (0.6325 µM) | relative viability (2 µM)
LCLC-103H | 0.975 | 0.931 | 1.03 | 1.06 | 0.992
NCI-H1666 | 1.2 | 1.09 | 1.09 | 1.01 | 1.01
NCI-H1734 | 0.928 | 0.974 | 0.934 | 0.963 | 0.984
EPLC-272H | 0.942 | 0.955 | 0.976 | 0.913 | 0.928
NCI-H2023 | 0.94 | 0.969 | 1.11 | 1 | 0.926
BEN | 0.987 | 0.959 | 1.14 | 1.12 | 0.964
COR-L 105 | 0.924 | 0.961 | 1.11 | 0.97 | 0.981
ABC-1 | 0.847 | 0.953 | 1.08 | 1.1 | 0.924
HCC-15 | 1.05 | 0.961 | 1.07 | 1.03 | 1
NCI-H2170 | 0.868 | 1.01 | 1.04 | 0.982 | 0.946
PC-3 [JPC-3] | 1.1 | 0.962 | 1.04 | 1.07 | 1.08
NCI-H1993 | 1.21 | 0.863 | 1 | 0.988 | 1.07
NCI-H358 | 0.9 | 0.995 | 0.918 | 0.989 | 0.907
NCI-H1563 | 1.01 | 1.07 | 0.97 | 1.05 | 1.08
EBC-1 | 1.08 | 0.997 | 1.06 | 0.975 | 1.06
NCI-H1915 | 0.937 | 0.975 | 1 | 1.01 | 0.981
RERF-LC-KJ | 0.964 | 1.01 | 1.07 | 0.95 | 0.954
LOU-NH91 | 1.02 | 0.945 | 0.939 | 1.07 | 0.984
NCI-H2347 | 1.04 | 1.02 | 1.06 | 1.08 | 1.04
NCI-H2126 | 1.01 | 0.966 | 1.01 | 0.983 | 1.05
HCC-827 | 1.05 | 1.01 | 1.05 | 1.1 | 1.03
Calu-6 | 0.977 | 1.01 | 0.999 | 0.981 | 0.959
NCI-H3122 | 0.947 | 0.963 | 0.955 | 0.966 | 0.999
HOP-62 | 0.907 | 1.03 | 1.03 | 1.06 | 1.04
HCC-44 | 0.979 | 0.98 | 0.991 | 1 | 1.03
